Patent US9233978B2, “6-fused heteroaryldihydropyrimidines for the treatment and prophylaxis of hepatitis B virus infection” (Hoffmann-La Roche Inc., priority 2014, dated 2016)
In brackets after ≈: the same amount, converted by molar mass.

Columns and labels:
[1] = Cytotoxicity in HepDE19 cells (CCK-8) and selectivity index; type: cell-based; details: human, HepDE19 cells; CCK-8 cell viability; five days after treatment
Excerpt: (§1) HepG2.2.15 and HepDE19 are stably-transfected cell lines containing the HBV genome. Both cell lines are derived from the hepatoblastoma cell line Hep G2 (American Type Culture Collection, ATCC® HB-8065™) by the published procedures described in references: MA Selles et al. Proc. Natl. Acad. Sci. USA 1987, 84, 1005-1009 and H Guo et al. Journal of Virology 2007, 81, 12472-12484, respectively. Both cell lines were maintained in Dulbecco's modified Eagle's medium (DMEM)-F12 medium supplemented with 10% fetal bovine serum, 100 U/mL penicillin, 100 μg/mL streptomycin, and 0.5 mg/mL of G418.
(§2) HepDE19 cells were seeded into 96-well plates (5×10^3 cells per well) and treated with compounds for EC50 determination. Five days after treatment, cell viability was measured by addition of 20 μL of CCK-8 reagent. Two hours after incubation at 37° C., the absorbance at wavelengths of 450 nm and 630 nm (OD450 and OD630) was recorded by a plate reader. The concentration results in the death of 50% of the host cells (CC50) of each compound were determined.
(§3) The relative effectiveness of the compound in inhibiting viral replication compared to inducing cell death was defined as the selectivity index (CC50 value/EC50 value). Based on CC50 and EC50 data, selectivity indexes were determined.

HepDE19 cells = test: as above; type: cell-based; details: CC50 (HepDE19) value / EC50 (HepG2.2.15) value
Excerpt: as §1, §2, §3

[2] = Human microsomal metabolic stability; type: in vitro ADME; details: human microsomes 0.5 mg/mL, 1 μM test compound, NADPH, 37° C., pH 7.4, 0-30 minutes
Procedure, shortened: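 1 μM compound with 0.5 mg/mL human liver microsomal protein in 100 mM phosphate pH 7.4 at 37° C, started with 1 mM NADPH or a NADPH-regenerating system. Sampled at 0–30 min, quenched in cold methanol with tolbutamide internal standard; remaining parent quantified by LC-MS/MS.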

Lysa solubility = type: physicochemical; details: 0.05 M phosphate buffer (pH 6.5); for solubility thermodynamic: phosphate buffer, pH 6.5, aqueous buffer, thermodynamic from solid
Procedure, shortened: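 Duplicate samples dried from 10 mM DMSO stocks, taken up in 0.05 M phosphate buffer pH 6.5, stirred 1 h, shaken 2 h and left overnight. Filtrate and 1/10 dilution quantified by direct UV or HPLC-UV, in μg/mL; above 80% of the calculated maximum, reported as greater than that value.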

HBV = test: Anti-HBV activity in vitro, HepG2.2.15 cells, extracellular HBV DNA by qPCR; type: cell-based; details: Hepatitis B virus, HepG2.2.15, 120 h, HepG2.2.15 cells; HBV replication inhibited by 50%, extracellular HBV DNA by qPCR; five days after compound treatment; read-out: EC50
Procedure, shortened: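 HBV-producing HepG2.2.15 cells were seeded and left overnight at 37 °C, then treated with half-log serial compound dilutions at a final 0.5% DMSO. After 5 days, viral DNA was extracted from the supernatant and extracellular HBV DNA was quantified by qPCR.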

Structure (SMILES) | CC50 at 5 days [1] [nM] | Selectivity index (CC50/EC50) (HepDE19 cells) | Human Microsomal Clearance [2] [mL/min/kg] | solubility thermodynamic (Lysa solubility) [µg/mL] | EC50 (HBV) [nM] | Lysa (Lysa solubility) [µg/mL]
COC(=O)C1=C(CN2CCN3C(=O)N(C4CC5(CC(C(=O)O)C5)C4)C[C@@H]3C2)NC(c2nccs2)=N[C@H]1c1ccc(F)cc1Cl (stereo partly drawn) [Example 79, 2-[(8aS)-7-[[(4R)-4-(2-chloro-4-fluoro-phenyl)-5-methoxycarbonyl-2-thiazol-2-yl-1,4-dihydropyrimidin-6-yl]methyl]-3-oxo-5,6,8,8a-tetrahydro-1H-imidazo[1,5-a]pyrazin-2-yl]spiro[3.3]heptane-6-carboxylic acid] | 52000 | 6500 | 3.6 | 180 (≈ 280 µM) | 8 | 
CCOC(=O)C1=C(CN2CCN3C(=O)N(C(C)C)C[C@@H]3[C@H]2C(=O)O)NC(c2nccs2)=N[C@H]1c1cccc(F)c1Cl (single isomer, unassigned) [Example 84B] | > 100000 | >100000 | 3.6 |  | 1 | 770
CCOC(=O)C1=C(CN2CCN3C(=O)N(Cc4ccc(C(=O)O)cc4)CC3C2)NC(c2nccs2)=N[C@H]1c1cccc(F)c1Cl (stereo partly drawn) [Example 66, (R)-6-[2-(4-Carboxy-benzyl)-3-oxo-hexahydro-imidazo[1,5-a]pyrazin-7-ylmethyl]-4-(2-chloro-3-fluoro-phenyl)-2-thiazol-2-yl-1,4-dihydro-pyrimidine-5-carboxylic acid ethyl ester] | 60000 | 15000 | 7.1 |  | 4 | 
CCOC(=O)C1=C(CN2CCN3C(=O)N(CC4CC(C(=O)O)C4)C[C@@H]3C2)NC(c2nccs2)=N[C@H]1c1cccc(F)c1Cl (stereo partly drawn) [Example 81, 3-[[(8aS)-7-[[(4R)-4-(2-chloro-3-fluoro-phenyl)-5-ethoxycarbonyl-2-thiazol-2-yl-1,4-dihydropyrimidin-6-yl]methyl]-3-oxo-5,6,8,8a-tetrahydro-1H-imidazo[1,5-a]pyrazin-2-yl]methyl]cyclobutanecarboxylic acid] | 85000 | 8500 | 0.1 | 279 (≈ 442 µM) | 10 | 
COC(=O)C1=C(CN2CCN3C(=O)N(CC4(C(=O)O)CC4)C[C@@H]3C2)NC(c2nccs2)=N[C@H]1c1ccc(F)cc1Cl [Example 35, 1-[[(8aS)-7-[[(4R)-4-(2-chloro-4-fluoro-phenyl)-5-methoxycarbonyl-2-thiazol-2-yl-1,4-dihydropyrimidin-6-yl]methyl]-3-oxo-5,6,8,8a-tetrahydro-1H-imidazo[1,5-a]pyrazin-2-yl]methyl]cyclopropanecarboxylic acid] | > 100000 | >9259 | 0.3 | > 754 | 11 | 
COC(=O)C1=C(CN2CCN3C(=O)N(Cc4ccc(C(=O)O)cc4)CC3C2)NC(c2nccs2)=N[C@H]1c1ccc(F)cc1Cl (stereo partly drawn) [Example 65, (R)-6-[2-(4-Carboxy-benzyl)-3-oxo-hexahydro-imidazo[1,5-a]pyrazin-7-ylmethyl]-4-(2-chloro-4-fluoro-phenyl)-2-thiazol-2-yl-1,4-dihydro-pyrimidine-5-carboxylic acid methyl ester] | > 100000 | >11111 | 6.2 | 194 (≈ 304 µM) | 9 | 
CCOC(=O)C1=C(CN2CCN3C(=O)OC[C@@H]3[C@H]2C(=O)O)NC(c2nccs2)=N[C@H]1c1cccc(F)c1Cl (single isomer, unassigned) [Example 102B] | > 100000 | >7142 | 6.2 | > 665 | 14 | 
CCOC(=O)C1=C(CN2CCN3C(=O)N(CC(C)C)C[C@@H]3[C@H]2C(=O)O)NC(c2nccs2)=N[C@H]1c1cccc(F)c1Cl (single isomer, unassigned) [Example 101B] | > 100000 | >100000 | 6.1 |  | 0.8 | 
COC(=O)C1=C(CN2CCN3C(=O)N(CC(C)(C)C(=O)O)C[C@@H]3C2)NC(c2nccs2)=N[C@H]1c1cccc(F)c1Cl [Example 41, 3-[(8aS)-7-[[(4R)-4-(2-chloro-3-fluoro-phenyl)-5-methoxycarbonyl-2-thiazol-2-yl-1,4-dihydropyrimidin-6-yl]methyl]-3-oxo-5,6,8,8a-tetrahydro-1H-imidazo[1,5-a]pyrazin-2-yl]-2,2-dimethyl-propanoic acid] | > 100000 | >7194 | 2.0 | > 804 | 14 | 
COC(=O)C1=C(CN2CCN3C(=O)N(C(C)C)C[C@@H]3[C@H]2C(=O)O)NC(c2nccs2)=N[C@H]1c1ccc(F)c(F)c1C (single isomer, unassigned) [Example 85B] | > 100000 | >16667 |  |  | 6 | 770
COC(=O)C1=C(CN2CCN3C(=O)N(C4CCC(C(=O)O)C4)C[C@@H]3C2)NC(c2nccs2)=N[C@H]1c1ccc(F)cc1Cl (mixture of isomers) [Example 61, (R)-6-[(S)-2-((1R,3S)-3-Carboxy-cyclopentyl)-3-oxo-hexahydro-imidazo[1,5-a]pyrazin-7-ylmethyl]-4-(2-chloro-4-fluoro-phenyl)-2-thiazol-2-yl-1,4-dihydro-pyrimidine-5-carboxylic acid methyl ester and (R)-6-[(S)-2-((1S,3R)-3-Carboxy-cyclopentyl)-3-oxo-hexahydro-imidazo[1,5-a]pyrazin-7-ylmethyl]-4-(2-chloro-4-fluoro-phenyl)-2-thiazol-2-yl-1,4-dihydro-pyrimidine-5-carboxylic acid methyl ester] | > 100000 | >8333 | 0.4 | > 742 | 12 | 
COC(=O)C1=C(CN2CCN3C(=O)N(CC(C)(C)C(=O)O)C[C@@H]3C2)NC(c2nccs2)=N[C@H]1c1cccc(F)c1C [Example 44, 3-[(8aS)-7-[[(4S)-4-(3-fluoro-2-methyl-phenyl)-5-methoxycarbonyl-2-thiazol-2-yl-1,4-dihydropyrimidin-6-yl]methyl]-3-oxo-5,6,8,8a-tetrahydro-1H-imidazo[1,5-a]pyrazin-2-yl]-2,2-dimethyl-propanoic acid] | > 100000 | >6369 | 1.7 | 207 (≈ 354 µM) | 16 | 
CCOC(=O)C1=C(CN2CCN3C(=O)CC[C@@H]3[C@H]2C(=O)O)NC(c2nccs2)=N[C@H]1c1cccc(F)c1Cl (racemic) [Example 99, 2-[[(4R)-4-(2-chloro-3-fluoro-phenyl)-5-ethoxycarbonyl-2-thiazol-2-yl-1,4-dihydropyrimidin-6-yl]methyl]-6-oxo-1,3,4,7,8,8a-hexahydropyrrolo[1,2-a]pyrazine-1-carboxylic acid] | > 100000 | >7142 | 6.1 | > 710 | 14 | 
COC(=O)C1=C(CN2CCN3C(=O)N(C4CC4)C[C@@H]3[C@H]2C(=O)O)NC(c2nccs2)=N[C@H]1c1ccc(F)c(F)c1C (single isomer, unassigned) [Example 83B] | > 100000 | >11111 | 2.9 |  | 9 | 780
